Source: US20150105252A1, “SUBSTITUTED PYRAZOLES AS HERBICIDES” (E I DU PONT DE NEMOURS AND COMPANY, priority 2013, published 2015)

Legend:
[1] = system: ragweed; assay: Test C postemergence; type: in vivo, Ambrosia elation; details: for Plant response rating (scale of 0 to 100 where 0 is no effect and 100 is complete control), Ragweed: Postemergence, 31 g ai/ha, visually evaluated after 13 to 15 days; for Ragweed plant response rating / Plant response rating, Ragweed: postemergence; for Ragweed plant response rating: 62 g ai/ha, scale 0 to 100
Outline: (§1)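 Pre- and postemergence greenhouse screen; vehicle was a non-phytotoxic solvent mix with surfactant. Preemergence: treatment applied right after sowing into loam and sand. Postemergence: treated at 1–4 leaves. Visual rating at 13–15 days, 100 = complete control.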

[2] = system: pigweed; assay: Test C postemergence; type: in vivo, Amaranthus retroflexus; details: for Plant response rating (scale of 0 to 100 where 0 is no effect and 100 is complete control), Pigweed: Postemergence, 31 g ai/ha, visually evaluated after 13 to 15 days; for Pigweed plant response rating / Plant response rating, Pigweed: postemergence; for Pigweed plant response rating: 62 g ai/ha, scale 0 to 100
Outline: as §1

[3] = system: ryegrass, Italian; assay: Test C preemergence; type: in vivo, Lolium multiflorum; details: for Plant response rating (scale of 0 to 100), Ryegrass, Italian: Preemergence, 250 g ai/ha; for Ryegrass, Italian plant response rating: preemergence
Outline: as §1

[4] = system: morningglory; assay: Test A preemergence; type: in vivo, Ipomoea spp.; details: preemergence
Outline: (§2)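 Pre- and postemergence greenhouse test; loam+sand; cpd in non-phytotox. solvent/surfactant; post at 1–2 leaf, 2–10 cm; visual score ~10 d, 0 = none, 100 = complete control.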

[5] = system: oat, wild; assay: Test C postemergence; type: in vivo, Avena fatua; details: for Plant response rating (scale of 0 to 100 where 0 is no effect and 100 is complete control), Oat, Wild: Postemergence, 31 g ai/ha, visually evaluated after 13 to 15 days; for Oat, Wild plant response rating / Plant response rating, Oat, Wild: postemergence; for Oat, Wild plant response rating: 62 g ai/ha, scale 0 to 100
Outline: as §1

[6] = system: wheat; assay: Test C postemergence; type: in vivo, Triticum aestivum; details: for Plant response rating (scale of 0 to 100 where 0 is no effect and 100 is complete control), Wheat: Postemergence, 31 g ai/ha, visually evaluated after 13 to 15 days; for Wheat plant response rating / Plant response rating, Wheat: postemergence; for Wheat plant response rating: 62 g ai/ha, scale 0 to 100
Outline: as §1

[7] = system: chickweed; assay: Test C postemergence; type: in vivo, Stellaria media; details: for Plant response rating (scale of 0 to 100 where 0 is no effect and 100 is complete control), Chickweed: Postemergence, 31 g ai/ha, visually evaluated after 13 to 15 days; for Chickweed plant response rating / Plant response rating, Chickweed: postemergence; for Chickweed plant response rating: 62 g ai/ha, scale 0 to 100
Outline: as §1

[8] = system: morningglory; assay: Test C postemergence; type: in vivo, Ipomoea coccinea; details: for Plant response rating (scale of 0 to 100 where 0 is no effect and 100 is complete control), Morningglory: Postemergence, 31 g ai/ha, visually evaluated after 13 to 15 days; for Morningglory plant response rating / Plant response rating, Morningglory: postemergence; for Morningglory plant response rating: 62 g ai/ha, scale 0 to 100
Outline: as §1

[9] = system: crabgrass, large; assay: Test C preemergence; type: in vivo, Digitaria sanguinalis; details: for Plant response rating (scale of 0 to 100), Crabgrass, Large: Preemergence, 250 g ai/ha; for Crabgrass, Large plant response rating: preemergence
Outline: as §1

[10] = system: foxtail, giant; assay: Test C postemergence; type: in vivo, Setaria faberii; details: for Plant response rating (scale of 0 to 100 where 0 is no effect and 100 is complete control), Foxtail, Giant: Postemergence, 31 g ai/ha, visually evaluated after 13 to 15 days; for Foxtail, Giant plant response rating / Plant response rating, Foxtail, Giant: postemergence; for Foxtail, Giant plant response rating: 62 g ai/ha, scale 0 to 100
Outline: as §1

[11] = system: corn; assay: Test A postemergence; type: in vivo, Zea mays
Outline: as §2

[12] = system: galium; assay: Test C preemergence; type: in vivo, Galium aparine; details: for Plant response rating (scale of 0 to 100), Galium: Preemergence, 250 g ai/ha; for Galium plant response rating: preemergence
Outline: as §1

[13] = system: sedge, umbrella; assay: Test B flood; type: in vivo, Cyperus difformis; details: 250 g ai/ha, visual rating on 0 to 100 scale (0 no effect, 100 complete control), 13 to 15 days
Outline: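 At two leaves, seedlings received the test compound via the paddy water, pots having been flooded 3 cm over the soil surface and kept so. Greenhouse-held for 13 to 15 days, then judged by eye against controls on a scale running 0 (no effect) to 100 (complete control).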

[14] = 250 g ai/ha, scale 0 to 100 (0 no effect, 100 complete control)
[15] = 125 g ai/ha, scale 0 to 100, 0 no effect, 100 complete control
[16] = 31 g ai/ha, visual rating, scale 0 to 100 (0 no effect, 100 complete control), 13 to 15 days
[17] = 62 g ai/ha, scale 0 to 100 (0 no effect, 100 complete control), 13 to 15 days
[18] = 125 g ai/ha, scale 0 to 100, 0 is no effect, 100 is complete control
[19] = 125 g ai/ha, visual injury, 0 to 100 scale, approx. 10 days
[20] = 500 g ai/ha, visual injury after approx. 10 days, 0 to 100 scale (0 no effect, 100 complete control)
[21] = Postemergence, 500 g ai/ha, visual rating after approx. 10 days, 0 to 100 scale (0 no effect, 100 complete control)
[22] = postemergence, 125 g ai/ha, about 10 days, visual rating on 0 to 100 scale (0 no effect, 100 complete control)

Structure (SMILES): CCc1cc(C(=O)NCC(F)(F)F)nn1Cc1cc(C(F)(F)F)nn1C [Compound 108, 5-ethyl-1-[[1-methyl-3-(trifluoromethyl)-1H-pyrazole-5-yl]methyl]-N-(2,2,2-trifluoroethyl)-1H-pyrazole-3-carboxamide]
- Plant response rating (scale of 0 to 100 where 0 is no effect and 100 is complete control), Ragweed [1]: 10
- Ragweed plant response rating [1]: 50
- Plant response rating, Ragweed [1, 14]: 85
- Plant response rating, Ragweed [1, 15]: 50
- Plant response rating (scale of 0 to 100 where 0 is no effect and 100 is complete control), Pigweed [2]: 40
- Pigweed plant response rating [2]: 45
- Plant response rating, Pigweed [2, 14]: 90
- Plant response rating, Pigweed [2, 15]: 50
- Plant response rating (scale of 0 to 100), Ryegrass, Italian [3]: 100
- Ryegrass, Italian plant response rating [3, 16]: 30
- Ryegrass, Italian plant response rating [3, 17]: 60
- Ryegrass, Italian plant response rating [3, 18]: 90
- Morningglory plant response rating [4, 19]: 100
- Morningglory plant response rating [4, 20]: 100
- Plant response rating (scale of 0 to 100 where 0 is no effect and 100 is complete control), Oat, Wild [5]: 10
- Oat, Wild plant response rating [5]: 10
- Plant response rating, Oat, Wild [5, 14]: 20
- Plant response rating, Oat, Wild [5, 15]: 15
- Plant response rating (scale of 0 to 100 where 0 is no effect and 100 is complete control), Wheat [6]: 0
- Wheat plant response rating [6]: 5
- Plant response rating, Wheat [6, 14]: 20
- Plant response rating, Wheat [6, 15]: 10
- Plant response rating (scale of 0 to 100 where 0 is no effect and 100 is complete control), Chickweed [7]: 85
- Chickweed plant response rating [7]: 100
- Plant response rating, Chickweed [7, 14]: 100
- Plant response rating, Chickweed [7, 15]: 100
- Plant response rating (scale of 0 to 100 where 0 is no effect and 100 is complete control), Morningglory [8]: 50
- Morningglory plant response rating [8]: 50
- Plant response rating, Morningglory [8, 14]: 90
- Plant response rating, Morningglory [8, 15]: 80
- Plant response rating (scale of 0 to 100), Crabgrass, Large [9]: 100
- Crabgrass, Large plant response rating [9, 16]: 100
- Crabgrass, Large plant response rating [9, 17]: 100
- Crabgrass, Large plant response rating [9, 18]: 100
- Plant response rating (scale of 0 to 100 where 0 is no effect and 100 is complete control), Foxtail, Giant [10]: 10
- Foxtail, Giant plant response rating [10]: 30
- Plant response rating, Foxtail, Giant [10, 14]: 45
- Plant response rating, Foxtail, Giant [10, 15]: 40
- Corn plant response rating [11, 21]: 100
- Corn plant response rating [11, 22]: 80
- Plant response rating (scale of 0 to 100), Galium [12]: 100
- Galium plant response rating [12, 16]: 85
- Galium plant response rating [12, 17]: 100
- Galium plant response rating [12, 18]: 100
- Plant response rating, Sedge, Umbrella [13]: 70

Structure (SMILES): CCc1cc(C(=O)NCC(F)(F)F)nn1Cc1nc(C(F)(F)F)nn1C [Compound 107]
- Plant response rating (scale of 0 to 100 where 0 is no effect and 100 is complete control), Ragweed [1]: 10
- Ragweed plant response rating [1]: 65
- Plant response rating, Ragweed [1, 14]: 90
- Plant response rating, Ragweed [1, 15]: 85
- Plant response rating (scale of 0 to 100 where 0 is no effect and 100 is complete control), Pigweed [2]: 50
- Pigweed plant response rating [2]: 85
- Plant response rating, Pigweed [2, 14]: 85
- Plant response rating, Pigweed [2, 15]: 85
- Plant response rating (scale of 0 to 100), Ryegrass, Italian [3]: 100
- Ryegrass, Italian plant response rating [3, 16]: 10
- Ryegrass, Italian plant response rating [3, 17]: 60
- Ryegrass, Italian plant response rating [3, 18]: 60
- Morningglory plant response rating [4, 19]: 90
- Morningglory plant response rating [4, 20]: 100
- Plant response rating (scale of 0 to 100 where 0 is no effect and 100 is complete control), Oat, Wild [5]: 5
- Oat, Wild plant response rating [5]: 5
- Plant response rating, Oat, Wild [5, 14]: 40
- Plant response rating, Oat, Wild [5, 15]: 5
- Plant response rating (scale of 0 to 100 where 0 is no effect and 100 is complete control), Wheat [6]: 0
- Wheat plant response rating [6]: 5
- Plant response rating, Wheat [6, 14]: 30
- Plant response rating, Wheat [6, 15]: 20
- Plant response rating (scale of 0 to 100 where 0 is no effect and 100 is complete control), Chickweed [7]: 100
- Chickweed plant response rating [7]: 100
- Plant response rating, Chickweed [7, 14]: 100
- Plant response rating, Chickweed [7, 15]: 100
- Plant response rating (scale of 0 to 100 where 0 is no effect and 100 is complete control), Morningglory [8]: 75
- Morningglory plant response rating [8]: 80
- Plant response rating, Morningglory [8, 14]: 80
- Plant response rating, Morningglory [8, 15]: 80
- Plant response rating (scale of 0 to 100), Crabgrass, Large [9]: 98
- Crabgrass, Large plant response rating [9, 16]: 98
- Crabgrass, Large plant response rating [9, 17]: 98
- Crabgrass, Large plant response rating [9, 18]: 98
- Plant response rating (scale of 0 to 100 where 0 is no effect and 100 is complete control), Foxtail, Giant [10]: 10
- Foxtail, Giant plant response rating [10]: 15
- Plant response rating, Foxtail, Giant [10, 14]: 60
- Plant response rating, Foxtail, Giant [10, 15]: 55
- Corn plant response rating [11, 21]: 90
- Corn plant response rating [11, 22]: 50
- Plant response rating (scale of 0 to 100), Galium [12]: 100
- Galium plant response rating [12, 16]: 75
- Galium plant response rating [12, 17]: 90
- Galium plant response rating [12, 18]: 95
- Plant response rating, Sedge, Umbrella [13]: 80

Structure (SMILES): CCCNC(=O)c1cc(CC)n(Cc2nc(C(F)(F)F)nn2C)n1 [Compound 109]
- Plant response rating, Ragweed [1, 14]: 80
- Plant response rating (scale of 0 to 100 where 0 is no effect and 100 is complete control), Pigweed [2]: 10
- Pigweed plant response rating [2]: 40
- Plant response rating, Pigweed [2, 14]: 65
- Plant response rating, Pigweed [2, 15]: 65
- Plant response rating (scale of 0 to 100), Ryegrass, Italian [3]: 100
- Ryegrass, Italian plant response rating [3, 16]: 10
- Ryegrass, Italian plant response rating [3, 17]: 50
- Ryegrass, Italian plant response rating [3, 18]: 100
- Morningglory plant response rating [4, 19]: 100
- Morningglory plant response rating [4, 20]: 100
- Plant response rating (scale of 0 to 100 where 0 is no effect and 100 is complete control), Oat, Wild [5]: 0
- Oat, Wild plant response rating [5]: 5
- Plant response rating, Oat, Wild [5, 14]: 5
- Plant response rating, Oat, Wild [5, 15]: 5
- Plant response rating (scale of 0 to 100 where 0 is no effect and 100 is complete control), Wheat [6]: 0
- Wheat plant response rating [6]: 0
- Plant response rating, Wheat [6, 14]: 0
- Plant response rating, Wheat [6, 15]: 0
- Plant response rating (scale of 0 to 100 where 0 is no effect and 100 is complete control), Chickweed [7]: 40
- Chickweed plant response rating [7]: 50
- Plant response rating, Chickweed [7, 14]: 65
- Plant response rating, Chickweed [7, 15]: 55
- Plant response rating (scale of 0 to 100 where 0 is no effect and 100 is complete control), Morningglory [8]: 65
- Morningglory plant response rating [8]: 70
- Plant response rating, Morningglory [8, 14]: 85
- Plant response rating, Morningglory [8, 15]: 75
- Plant response rating (scale of 0 to 100), Crabgrass, Large [9]: 100
- Crabgrass, Large plant response rating [9, 16]: 90
- Crabgrass, Large plant response rating [9, 17]: 100
- Crabgrass, Large plant response rating [9, 18]: 100
- Plant response rating (scale of 0 to 100 where 0 is no effect and 100 is complete control), Foxtail, Giant [10]: 10
- Foxtail, Giant plant response rating [10]: 10
- Plant response rating, Foxtail, Giant [10, 14]: 50
- Plant response rating, Foxtail, Giant [10, 15]: 45
- Corn plant response rating [11, 21]: 90
- Corn plant response rating [11, 22]: 80
- Plant response rating (scale of 0 to 100), Galium [12]: 100
- Galium plant response rating [12, 16]: 10
- Galium plant response rating [12, 17]: 100
- Galium plant response rating [12, 18]: 100
- Plant response rating, Sedge, Umbrella [13]: 0
